Test results as given in patent EP0415999B1, “COMPOSITIONS HAVING USE AS TREATMENT OF PSORIASIS AND NEUROP[…]” (THE UNITED STATES OF AMERICA as represented by the …, priority 1988, dated 1998).

Tested on: volunteers who tested negative or HIV antibodies
Assay: Overall neuropsychologic and clinical observations during seven-day peptide administration
Type: in vivo, human
Description: As indicated in the Table, symptoms of substance abuse, childhood dyslexia and depression were ameliorated. The peptide having the formula: [formula] was given at dosage of 0.033 mg/kg/da to 0.133 mg/kg/da for seven days. As indicated in the Table, the unexpected effects observed in these volunteers who tested negative or HIV antibodies were the following: • 1. […] This effect maintained for one month of follow-up.

With `C[C@@H](N)C(=O)N[C@@H](CO)C(=O)N[C@H](C(=O)N[C@H](C(=O)N[C@H](C(=O)N[C@@H](CC(N)=O)C(=O)N[C@@H](Cc1ccc(O)cc1)C(=O)N[C@H](C(N)=O)[C@@H](C)O)[C@@H](C)O)[C@@H](C)O)[C@@H](C)O` [Peptide T] the “scores on memory and attention components of standard neuropsychologic tests” value (0.033 mg/kg/da to 0.133 mg/kg/da for seven days, remitted after Peptide T was discontinued) was “Incremental scores”, the physical activity (all subjects, while on drug, did not continue after drug discontinuance) was “increases in physical activity” and the “fatigue, energy and vigor (reported by subjects)” value (all subjects, effect abated off drug) was “decreased fatigue and increased energy and vigor”. For the same compound, the “mood scores on depression scales” value (two research volunteers with prior histories of depression, effect maintained for one month of follow-up) was “Improved mood scores”.
